Reference: PubChem BioAssay AID743062 (Sanford-Burnham Center for Chemical Genomics, 2013)
pIC50: −log10 of the molar value. “And” between values parts separate entries of the source, which are not always exact repeats. Identical values can stand only once. The source made the active and inactive calls.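 The calls were made as follows: active = IC50 of 25 µM or lower, counted as toxic to worms; inactive = the rest.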

What follows are compounds tested on C. elegans VP596 worm health composite score, 20-22 h (assay: nematode toxicity of SKN-1 inhibitor analogs – whole organism, strain VP596, composite health score, round 3, cytotoxicity control for SKN-1 inhibitor project, SAR follow-up (AID 743062)).
For `Cc1ccccc1-c1csc(-c2ccncc2)n1`, the IC50 was 55.7 µM (inactive).
`Clc1ccccc1-c1csc(-c2ccncc2)n1` was tested, and the IC50 was 33.2 µM (inactive).
With `c1ccc(-c2csc(C3CCNCC3)n2)cc1` the IC50 was > 64 µM (inactive).
Compound `COc1ccc(-c2csc(-c3ccccn3)n2)cc1` has a pIC50 of 4.67.
In the case of `Fc1ccc(-c2csc(-c3cccnc3)n2)cc1`, the IC50 was 35.6 µM (inactive).
For `Cc1ccc(-c2csc(C3CCNCC3)n2)cc1`, the IC50 was > 64 µM (inactive).
With `Clc1ccc(-c2csc(-c3ccncc3)n2)c(Cl)c1` the IC50 was > 64 µM (inactive).
In the case of `Cc1sc(-c2ccncc2)nc1-c1ccc(Cl)cc1`, the IC50 was > 64 µM (inactive).
In the case of `Clc1ccc(-c2csc(-c3ccccc3)n2)cc1`, the IC50 was > 64 µM (inactive).
With `Cc1csc(-c2ccncc2)n1` the IC50 was > 64 µM (inactive).
`COc1ccc(-c2nc(-c3ccncc3)sc2C)cc1` was tested, and the IC50 was > 64 µM (inactive).
In the case of `c1cc(-c2nc(C3CC3)cs2)ccn1`, the IC50 was > 64 µM (inactive).
In the case of `CCCc1cc(-c2nc(-c3ccc(C)cc3)cs2)ccn1`, the IC50 was > 64 µM (inactive).
For `Cc1ccc(-c2csc(-c3ccccn3)n2)cc1`, the IC50 was > 64 µM (inactive).
In the case of `Clc1cccc(-c2csc(-c3ccncc3)n2)c1`, the pIC50 was 4.80.
With `Fc1ccc(-c2csc(C3CCNCC3)n2)cc1` the IC50 was > 64 µM (inactive).
`Cc1ccc(-c2nc(-c3ccncc3)sc2C)cc1` was tested, and the IC50 was > 64 µM (inactive).
With `Fc1ccc(-c2csc(-c3ccccn3)n2)cc1` the IC50 was 42 µM (inactive).
In the case of `c1ccc(-c2csc(-c3ccccn3)n2)cc1`, the IC50 was > 64 µM (inactive).
For `Cc1sc(-c2ccncc2)nc1-c1ccc(F)cc1`, the IC50 was > 64 µM (inactive).
In the case of `Cc1ccc(-c2csc(-c3cccnc3)n2)cc1`, the IC50 was > 64 µM (inactive).
With `COc1ccc(-c2csc(-c3ccncc3)n2)cc1` the IC50 was > 64 µM (inactive).
In the case of `CC(C)(C)c1csc(-c2ccncc2)n1`, the IC50 was > 64 µM (inactive).
In the case of `COc1ccc(-c2csc(C3CCNCC3)n2)cc1`, the IC50 was > 64 µM (inactive).
In the case of `Clc1ccc(-c2csc(-c3cccnc3)n2)cc1`, the IC50 was 11.1 µM and 29.4 µM (inactive).
For `Cc1cccc(-c2csc(-c3ccncc3)n2)c1`, the IC50 was 50.8 µM (inactive).
For `Cc1sc(-c2ccncc2)nc1-c1ccccc1`, the IC50 was 48.3 µM (inactive).
In the case of `COC(=O)c1ccc(-c2csc(-c3ccncc3)n2)cc1`, the IC50 was > 64 µM (inactive).
In the case of `c1ccc(-c2csc(-c3cccnc3)n2)cc1`, the IC50 was 53.9 µM (inactive).
In the case of `c1ccc(-c2csc(-c3ccncc3)n2)cc1`, the IC50 was 42.4 µM (inactive).
For `CCCc1cc(-c2nc(-c3ccc(NS(C)(=O)=O)cc3)cs2)ccn1`, the IC50 was > 64 µM (inactive).
With `c1cc(-c2nc(-c3nccs3)cs2)ccn1` the IC50 was > 64 µM (inactive).
In the case of `Clc1ccc(-c2csc(C3CCNCC3)n2)cc1`, the IC50 was > 64 µM (inactive).
In the case of `Cc1sc(C2CCNCC2)nc1-c1ccccc1`, the IC50 was > 64 µM (inactive).
For `Clc1ccc(-c2csc(-c3ccncc3)n2)cc1`, the IC50 was 32.7 µM (inactive) and 11.5 µM.
With `COc1ccc(-c2csc(-c3cccnc3)n2)cc1` the IC50 was 36.4 µM (inactive).
For `COc1ccccc1-c1csc(-c2ccncc2)n1`, the IC50 was 48.4 µM (inactive).
`N#Cc1ccc(-c2csc(-c3ccncc3)n2)cc1` was tested, and the IC50 was 37.2 µM (inactive).
`Cc1ccc(-c2csc(-c3ccncc3)n2)cc1` was tested, and the IC50 was 54.6 µM (inactive).
In the case of `Fc1ccc(-c2csc(-c3ccccc3)n2)cc1`, the IC50 was 28.4 µM (inactive).
`Fc1ccc(-c2csc(-c3ccncc3)n2)cc1` was tested, and the IC50 was 53.6 µM (inactive).
For `c1ccc(-c2nc(-c3cccnc3)cs2)cc1`, the IC50 was > 64 µM (inactive).
`Clc1ccc(-c2csc(-c3ccccn3)n2)cc1` was tested, and the IC50 was 23.1 µM and > 64 µM (inactive).
In the case of `Clc1ccc(-c2csc(-c3ccncc3)n2)cc1Cl`, the IC50 was 10.5 µM and 33.7 µM (inactive).
In the case of `COc1ccc(-c2csc(-c3ccccc3)n2)cc1`, the IC50 was > 64 µM (inactive).
In the case of `COc1cccc(-c2csc(-c3ccncc3)n2)c1`, the IC50 was 55.7 µM (inactive).
`FC(F)(F)c1ccc(-c2csc(-c3ccncc3)n2)cc1` gave a pIC50 of 4.69.
In the case of `Cc1ccc(-c2csc(-c3ccccc3)n2)cc1`, the IC50 was > 64 µM (inactive).
